The target in one test is T1, G9a (Homo sapiens, UniProt Q96KQ7).
T1 construct: endogenous in cells; host or cells: MDA-MB-231
T1 sequence (Q96KQ7 1-1210): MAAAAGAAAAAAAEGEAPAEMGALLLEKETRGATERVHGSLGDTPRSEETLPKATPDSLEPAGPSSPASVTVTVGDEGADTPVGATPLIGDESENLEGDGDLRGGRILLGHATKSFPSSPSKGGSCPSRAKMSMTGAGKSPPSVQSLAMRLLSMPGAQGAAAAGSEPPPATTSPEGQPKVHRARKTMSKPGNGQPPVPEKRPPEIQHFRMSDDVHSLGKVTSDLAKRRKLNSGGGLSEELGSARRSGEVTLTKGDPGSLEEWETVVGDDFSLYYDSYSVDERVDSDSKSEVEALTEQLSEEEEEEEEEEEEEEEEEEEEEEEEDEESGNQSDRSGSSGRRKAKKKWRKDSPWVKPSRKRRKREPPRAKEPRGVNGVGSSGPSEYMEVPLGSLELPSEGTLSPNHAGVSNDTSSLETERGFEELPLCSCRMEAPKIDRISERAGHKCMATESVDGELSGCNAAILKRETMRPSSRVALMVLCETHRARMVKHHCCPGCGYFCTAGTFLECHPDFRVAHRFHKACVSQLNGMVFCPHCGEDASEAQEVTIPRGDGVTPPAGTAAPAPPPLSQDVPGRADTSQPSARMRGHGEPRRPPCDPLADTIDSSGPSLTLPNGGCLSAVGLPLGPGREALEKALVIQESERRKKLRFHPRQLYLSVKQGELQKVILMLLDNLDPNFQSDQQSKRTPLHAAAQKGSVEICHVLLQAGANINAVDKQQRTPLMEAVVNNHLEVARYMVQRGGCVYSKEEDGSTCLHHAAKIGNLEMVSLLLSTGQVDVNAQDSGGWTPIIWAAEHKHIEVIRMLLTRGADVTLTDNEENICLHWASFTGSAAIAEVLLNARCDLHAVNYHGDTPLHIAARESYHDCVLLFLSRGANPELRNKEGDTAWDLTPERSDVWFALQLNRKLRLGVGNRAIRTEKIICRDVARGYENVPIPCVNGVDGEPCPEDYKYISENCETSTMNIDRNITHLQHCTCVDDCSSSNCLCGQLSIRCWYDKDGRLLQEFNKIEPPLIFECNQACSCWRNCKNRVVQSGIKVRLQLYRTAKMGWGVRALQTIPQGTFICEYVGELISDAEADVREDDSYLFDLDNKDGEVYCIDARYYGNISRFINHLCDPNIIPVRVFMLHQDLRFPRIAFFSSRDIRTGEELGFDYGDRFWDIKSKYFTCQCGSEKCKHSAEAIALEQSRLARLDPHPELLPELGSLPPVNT
Description: H3K9Me2 cell immunofluorescence in-cell Western (ICW) assay. The format is cell-based. The settings on record: MDA-MB-231 cell line, 48 h. As for the experimental part:
After the incubation, the media was removed and 100 μl fixation and permeabilization solution (2% formaldehyde in PBS) for fixation was added for 30 min. And then use 200 μl 0.1% Triton X100 in PBS washing solution to wash (allow wash to shake on a plate shaker for 5 minutes). After five washes, cells were blocked for 1 h with 150 μl blocking buffer to each well (1% BSA in PBS) (allow blocking at RT with moderate shaking on a plate shaker). After 1 h, remove the blocking buffer from the blocking step and add primary antibody in blocking buffer to cover the bottom of each well. […] The plates were read on an Odyssey CLX (LiCor) scanner at both 800 nm (H3K9me2 signal) and 700 nm (cell tag 700 stain signal) channels. IC50s were calculated using GraphPad Prizm statistical package with sigmoidal variable slope dose response curve fit.

Test [1] has as its target T2, Mouse histone methyltransferase G9a (969-1263) (Mus musculus, UniProt Q9Z148).
T2 construct: The 6His-sumo mG9a (969-1263) protein was purified using the following procedure; 6His-sumo (cleaved yes); made in house; host or cells: Escherichia coli BL21 (DE3)
T2 sequence (Q9Z148 969-1263): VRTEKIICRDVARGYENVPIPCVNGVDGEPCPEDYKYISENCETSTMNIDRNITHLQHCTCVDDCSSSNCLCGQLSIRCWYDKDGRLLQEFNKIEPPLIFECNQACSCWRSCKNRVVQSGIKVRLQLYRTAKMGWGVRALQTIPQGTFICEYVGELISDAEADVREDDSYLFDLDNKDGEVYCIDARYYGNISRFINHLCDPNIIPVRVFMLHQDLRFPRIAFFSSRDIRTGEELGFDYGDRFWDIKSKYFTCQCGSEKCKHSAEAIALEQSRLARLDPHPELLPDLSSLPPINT
Kind of test: MALDI-TOF methylation study of G9a inhibition. The format is biochemical. The settings on record: inhibitors at 5 μM concentration for 30 min. The procedure: Mouse histone methyltransferase G9a (969-1263) cDNA was amplified from the cDNA of BALB/c mouse thymus, and the fragment was sub-cloned into a vector with a 6His-sumo tag. […] The 6His-sumo mG9a (969-1263) protein was purified using the following procedure: harvested cell pellet was re-suspended in 20 mM Tris (pH 8.0), 500 mM NaCl, 0.1% β-mercaptoethanol, and 1 mM PMSF. Cells were lysed by sonicating for 15 seconds with 6 second intervals for a total time of 15 minutes on an ice bath. […] The 6His-sumo tag was cleaved from the column by adding Ubiquitin-like-specific protease 1 (ULP-1) at 4° C. for 12 hours. Wash buffer was then run through the Ni^+ column again and the elution buffer collected. Subsequently, advanced protein purification was done by HiTrap Q HP sequential Superdex 200 10/300 GL. Elute of every step was analyzed by SDS PAGE, stained by Coomassie brilliant blue (CBB). […] The reaction was incubated at room temperature for 30 min, and stopped by TFA. 1 μL of the sample was mixed with CHCA matrix and m/z peaks were obtained at reflection positive mode. The results of mass spectrum were analyzed using the Bruker flex analysis software and data processing was carried out as described below. MALDI-TOF based experiments were performed according to the protocol developed by Chang et al. (Nat. Struct. Mol. Biol. 2009, 16, 312-317). MALDI spectra were collected using Bruker flex control software and analyzed by flex analysis. After labelling each cluster peaks of H3K9Me0, H3K9Me1 and H3K9Me2 for all of the tested concentrations, area under the cluster (AUC) were extracted by using the same flex analysis software. % abundance of each peak was calculated by following formula: A=% Abundance of (H3K9Me0)=area of H3K9Me0/(area of H3K9Me0+area of H3K9Me1+area of H3K9Me2) B=% Abundance of (H3K9Me1)=area of H3K9Me1/(area of H3K9Me0+area of H3K9Me1+area of H3K9Me2) C=% Abundance of (H3K9Me2)=area of H3K9Me2/(area of H3K9Me0+area of H3K9Me1+area of H3K9Me2). This was repeated for each spectra (3 multiples for each samples). […] Finally % inhibition was found by subtracting % MA(i) from 100. […] A biochemical assay using MALDI-TOF was used to visualize the effects of the synthesized compounds on G9a enzymatic activity. […] Struct. Mol. Biol. 2009, 16, 312-317).

The subject of a further test is HCT-8. Description: Cytotoxicity / anti-proliferation assay (CCK-8), HCT-8. As to conditions: Homo sapiens, 72 h, CCK-8 kit. The format is cell-based. As for the experimental part:
(§1) Then the cells were exposed to the different inhibitors with various concentrations for 72 h. […] EC50s were calculated using GraphPad Prizm statistical package with sigmoidal variable slope dose response curve fit.
(§2) Cell anti-proliferation assays were performed to determine the toxicity of these inhibitors. […] These compounds were further evaluated against the control cell line HEK293 to test their toxicity with a non-cancerous cell line.
In general terms: Tetrazolium dyes change colour on reduction, which living cells bring about.

The test system of test [2] is HDAC. Description: Cell based homogenous HDAC assay, A549. The settings on record: read-out: IC50-HDAC A549; A549 cells, mean ± SD of triplicate.
Description: After 24 h, 9 μl inhibitors with different concentration were added to the HeLa cells and incubation was continued for 3 h under cell culture conditions. After this treatment period, 10 μl of a 2 mM stock solution of the substrate Boc-K(Ac)-AMC was added into the 96 well plates with Hela cells and inhibitors. […] A549 and K562 cell lines used the same method, respectively. IC50s were calculated using GraphPad Prizm statistical package with sigmoidal variable slope dose response curve fit.
Boc-K(Ac)-AMC was used as a cell-permeable HDAC substrate, as after deacetylation it is cleaved by trypsin to release the florescent 7-amino-4-methylcoumarin (AMC).
Test [3] deals with HDAC. Kind of test: Cell based homogenous HDAC assay, K562. The settings on record: read-out: IC50-HDAC K562; K562 cells, mean ± SD of triplicate.
The next test has as its system A549. Description: Cytotoxicity / anti-proliferation assay (CCK-8), A549. The format is cell-based. As to conditions: Homo sapiens, 72 h, CCK-8 kit. As for the experimental part: as §1, §2
Test [4] relates to HDAC. Kind of test: Cell based homogenous HDAC assay, Hela. The settings on record: read-out: IC50-HDAC Hela; Hela cells, mean ± SD of triplicate.

IC50, inhibition and EC50 data for ten compounds are collected here from patent publication US20190322643A1 (Georgia State University Research Foundation, Inc., priority 2016, published 2019).

Some results are limits rather than exact numbers.

Turning to `COc1cc2nc(NCCNC(=O)CCCCCCC(=O)NO)nc(NC3CCN(C)CC3)c2cc1OC` [Compound 4, N1-(2-((6,7-dimethoxy-4-((1-methylpiperidin-4-yl)amino)quinazolin-2-yl)amino)ethyl)-N8-hydroxyoctanediamide], the IC50 (in general, the concentration that gives 50% inhibition) against G9a was 96.7 ± 1.68 µM; with HDAC [2], over 100 µM; in the test on HDAC [3], over 100 µM; in the test with HDAC [4], over 100 µM. The inhibition (as a rule, the share of the control response that was lost under treatment) at 5 µM in test [1] is 27 ± 12.2%. The EC50 with HCT-8 and in the test on A549 was over 100 µM in each case.
`COc1ccc2c(NC3CCN(C)CC3)nc(NCCNC(=O)CCCCCC(=O)NO)nc2c1` [Compound 14a, N1-hydroxy-N7-(2-((7-methoxy-4-((1-methylpiperidin-4-yl)amino)quinazolin-2yl)amino)ethyl) heptanediamide] had an IC50 against G9a of 46.8 ± 1.97 µM. The inhibition at 5 µM in test [1] was found to be 29.7 ± 23.3%. The half-maximal effective concentration (EC50) in the test on HCT-8 and in the test on A549 was over 100 µM throughout.
At G9a, `COc1ccc2c(NC3CCN(Cc4ccccc4)CC3)nc(NCCNC(=O)CCCCC(=O)NO)nc2c1` [Compound 15, N1-(2-((4-((1-benzylpiperidin-4-yl)amino)-7-methoxyquinazolin-2-yl)amino)ethyl)-N6-hydroxyadipamide] returned a concentration for half-maximal inhibition (IC50) of 72.1 ± 1.37 µM. This compound also registered an inhibition at 5 µM in test [1] of 47.9 ± 12.9%. Further, the EC50 with HCT-8 and with A549 was over 100 µM in each case.
At G9a, `COc1ccc2c(NC3CCN(C)CC3)nc(NCCNC(=O)CCCCC(=O)NO)nc2c1` [Compound 15a, N1-hydroxy-N6-(2-((7-methoxy-4-((1-methylpiperidin-4-yl)amino)quinazolin-2-yl)amino)ethyl)adipamide] gave an IC50 of 47 ± 3.33 µM. In addition, the inhibition at 5 µM in test [1] was 69.1 ± 24.5%. Besides, the EC50 in the test on HCT-8 and in the test with A549 was over 100 µM in each case.
Take `COc1ccc2c(NC3CCN(Cc4ccccc4)CC3)nc(NCCNC(=O)CCCC(=O)NO)nc2c1` [Compound 16, N1-(2-((4-((1-benzylpiperidin-4-yl)amino)-7-methoxyquinazolin-2-yl)amino)ethyl)-N5-hydroxyglutaramide]: the IC50 at G9a was found to be 90.3 ± 3.75 µM. For the same compound, the inhibition at 5 µM in test [1] is 40.3 ± 13.8%. The response with HCT-8 was half-maximal at 83.9 µM (EC50).
The compound `COc1ccc2c(NC3CCN(C)CC3)nc(NCCNC(=O)CCCC(=O)NO)nc2c1` [Compound 16a, N1-hydroxy-N5-(2-((7-methoxy-4-((1-methylpiperidin-4-yl)amino)quinazolin-2-yl)amino)ethyl)glutaramide] displayed an IC50 against G9a of 45.7 ± 1.76 µM. This compound also registered an inhibition at 5 µM in test [1] of 40.3 ± 13.8%. Besides, the EC50 with HCT-8 and in the test with A549 was over 100 µM each time.
`COc1cc2nc(N3CCCN(C)CC3)nc(NC3CCN(C(=O)CCCCCCC(=O)NO)CC3)c2cc1OC` [Compound 19, 8-(4-((6,7-dimethoxy-2-(4-methyl-1,4-diazepan-1-yl)quinazolin-4-yl)amino)piperidin-1-yl)-N-hydroxy-8-oxooctanamide] returned a concentration for half-maximal inhibition (IC50) against G9a of 99.6 ± 3.13 µM. This compound yielded an inhibition at 5 µM in test [1] of 10.7 ± 25.9%. Besides, the EC50 in the test on HCT-8 and in the test with A549 was over 100 µM each time.
`COc1cc2nc(N3CCCN(C)CC3)nc(NC3CCN(C(=O)CCCCCC(=O)NO)CC3)c2cc1OC` [Compound 20, 7-(4-((6,7-dimethoxy-2-(4-methyl-1,4-diazepan-1-yl)quinazolin-4-yl)amino)piperidin-1-yl)-N-hydroxy-7-oxoheptanamide]: on G9a, half-maximal inhibition (IC50) required 97.5 ± 2.78 µM. The same compound gave an inhibition at 5 µM in test [1] of 14.6 ± 15.8%. The concentration for a half-maximal effect (EC50) in the test with HCT-8 and in the test with A549 was over 100 µM each time.
As for `COc1ccc2c(NCCNC(=O)CCCCCCC(=O)NO)nc(N3CCCN(C)CC3)nc2c1` [Compound 21, N1-hydroxy-N8-(2-((7-methoxy-2-(4-methyl-1,4-diazepan-1-yl)quinazolin-4 yl)amino)ethyl)octanediamide], in test [1], the inhibition at 5 µM was determined as 22.8 ± 26.7%. Besides, the EC50 in the test with HCT-8 and with A549 was over 100 µM each time.
Compound `COc1ccc2c(NCCNC(=O)CCCCCC(=O)NO)nc(N3CCCN(C)CC3)nc2c1` [Compound 22, N1-hydroxy-N7-(2-((7-methoxy-2-(4-methyl-1,4-diazepan-1-yl)quinazolin-4-yl)amino)ethyl)heptanediamide] had an IC50 against G9a of 60.6 ± 3.66 µM. Also, the inhibition at 5 µM in test [1] is 40.3 ± 15.3%. Moreover, the EC50 in the test with HCT-8 and in the test with A549 was over 100 µM in each case.
